Measurements published in patent US20260274798A1, “PENTAMIDINE ANALOGUE POLYMORPHS, FORMULATIONS, AND METHODS THEREOF” (AURANSA INC., priority 2023, published 2026).
Entries after “also recorded” stand apart in the source; their conditions may differ.

How the values were obtained:
Type in all cases: physicochemical
[1] = Thermodynamic solubility in water and a pH 7.4 phosphate buffer; settings: slurry agitated at ambient ca. 24 hours, HPLC, diacetate
Protocol: (§1) 25.6 mL of 2-propanol was added to the lyophilized Compound A diacetate salt to form a slurry. The slurry was then temperature cycled between ambient and 40° C. in 4 hour cycles with agitation for ca. 24 hours. The slurry was then filtered and the isolated solids collected into a scintillation vial. A subsample was analyzed by XRPD and the vial was left uncapped to allow the solids to […] at ambient for ca. 24 hours. The material was then re-analyzed by XRPD post-drying and fully characterized using the following techniques: TG/DSC, DSC, DVS with post-DVS XRPD analysis, PLM, FT-IR, ^1H NMR, Purity by HPLC, TG/DSC with post TG/DSC XRPD analysis, and 7 Day Stability Assessment (ca. 10 mg of the material was stored at 40° C./75% RH. 80° C. and ambient light and humidity for 1 week. The solids were then analyzed by XRPD and purity obtained by HPLC). Thermodynamic solubility in water and a pH 7.4 phosphate buffer (The appropriate media was added in 100 μL aliquots to ca. 20 mg of the material to form a slurry. The samples were then sealed and agitated at ambient for ca. 24 hours before being centrifuge filtered. The isolated solids were analyzed by XRPD and the concentration of the mother liquors determined by HPLC).
The material appears highly insoluble in the phosphate buffer with all Forms having a solubility of 0.3 mg/mL except from Form 2 which has a solubility of 0.2 mg/mL.

[2] = Variable humidity X-ray powder diffraction (VH-XRPD); settings: 30° C.
Protocol: XRPD analysis was carried out on a Philips X'Pert Pro Multipurpose diffractometer equipped with a humidity chamber. The samples were scanned between 4 and 36 °2θ using Cu K radiation (α1=1.54060 A; α2=1.54443 A; β=1.39225 A; α1:α2 ratio=0.5) running in Bragg-Brentano geometry (step size 0.008 °2θ) using 40 kV/40 mA generator settings. Measurements were performed at 30° C. during the humidity profile described below: • Initial scan at 40% RH • Humidity increased to 90% RH for 105 minutes (scan after 5 and 105 minutes) • Humidity decreased to 40% RH for 10 minutes (scan after 5 minutes) • Humidity decreased to 5% RH for 60 minutes (scan taken after 60 minutes) • Humidity decreased to 0% RH for 17 hours (scan taken after 17 hours) • Humidity increased to 40% RH for 60 minutes (scan taken at 30 and 60 minutes) • Humidity increased to 60% RH for 105 minutes (scan taken at 5 and 105 minutes) • Humidity increased to 80% RH for 60 minutes (scan taken at 5 and 55 minutes)

[3] = 7 Day Stability Assessment (XRPD form and HPLC purity after storage); settings: diacetate; for one-week stability: form by XRPD: 1 week (Form 1: 2 and 7 days)
Protocol: as §1

[4] = Dynamic vapour sorption (DVS) with post-DVS XRPD; settings: 25° C.
Protocol: Approximately, 10-20 mg of sample was placed into a mesh vapour sorption balance pan and loaded into a DVS Intrinsic dynamic vapour sorption balance by Surface Measurement Systems. The sample was subjected to a ramping profile from 40-90% relative humidity (RH) at 10% increments, maintaining the sample at each step until a stable weight had been achieved (dm/dt 0.004%, minimum step length 30 minutes, maximum step length 500 minutes) at 25° C. After completion of the sorption cycle, the sample was dried using the same procedure to 0% RH and then a second sorption cycle back to 40% RH. Two cycles were performed. The weight change during the sorption/desorption cycles were plotted, allowing for the hygroscopic nature of the sample to be determined. XRPD analysis was then carried out on any solid retained.

CC(=O)O.CC(=O)O.N=C(N)c1ccc(OCCCCCOc2ccc(C(=N)N)nc2)cc1 [Form 9, 5-((5-(4-carbamimidoylphenoxy)pentyl)oxy)picolinimidamide diacetate]
solubility ([1]; Water): 44.0 mg/mL | solubility ([1]; pH 7.4 Phosphate Buffer): 0.3 mg/mL | form by VH-XRPD ([2]; 90% RH): convert to Form 2 | form by VH-XRPD ([2]; drying at 0% RH): becomes poorly crystalline | one-week stability: form by XRPD ([3]; 40° C./75% RH): remained unchanged by XRPD | one-week stability: form by XRPD ([3]; 80° C.): convert to Form 1 | one-week stability: form by XRPD ([3]; ambient temperature and humidity): remained unchanged by XRPD | 1 Week Stability ([3]; form by XRPD after storage at 40° C./75% RH, ambient or 80° C.): Converts to pattern 1 at 80 °C | mass uptake at 90% RH ([4]; DVS, 90% RH, diacetate): 8% | hygroscopicity by DVS ([4]; DVS, diacetate): hygroscopic | form of recovered solid by post-DVS XRPD ([4]; after DVS cycles, diacetate): mixture of phases with peaks matching Form 9 and new peaks | weight loss on dehydration during DVS ([4]; below 10% RH): 7.3 wt. % | weight increase on form change during DVS ([4]; first sorption cycle at 80% RH): 5.2 wt. % | form change during DVS ([4]; first sorption cycle at 80% RH, diacetate): form change to Form 2; also recorded: convert to Form 2
